In ChEMBL document CHEMBL1142025 (Bioorg Med Chem Lett, 2005):
pIC50, pKi: −log10 of the molar value.

Tests used:
[1] = target: T1, Human immunodeficiency virus type 1 protease (Human immunodeficiency virus 1, UniProt Q72874); assay: Binding affinity against human immunodeficiency virus (HIV) protease; assay type: single protein, human immuno deficiency virus protease
[2] = target: T1, Human immunodeficiency virus type 1 protease; assay: Inhibitory concentration against human immunodeficiency virus (HIV) protease; set-up: species or system human immuno deficiency virus protease
[3] = target: Pepsin A (Homo sapiens, UniProt P0DJD9); assay: Inhibitory concentration against pepsin
[4] = Inhibitory concentration against cathepsin
[5] = target: T2, Renin (Homo sapiens, UniProt P00797); assay: Inhibitory concentration against renin
T2 sequence (P00797 whole entry): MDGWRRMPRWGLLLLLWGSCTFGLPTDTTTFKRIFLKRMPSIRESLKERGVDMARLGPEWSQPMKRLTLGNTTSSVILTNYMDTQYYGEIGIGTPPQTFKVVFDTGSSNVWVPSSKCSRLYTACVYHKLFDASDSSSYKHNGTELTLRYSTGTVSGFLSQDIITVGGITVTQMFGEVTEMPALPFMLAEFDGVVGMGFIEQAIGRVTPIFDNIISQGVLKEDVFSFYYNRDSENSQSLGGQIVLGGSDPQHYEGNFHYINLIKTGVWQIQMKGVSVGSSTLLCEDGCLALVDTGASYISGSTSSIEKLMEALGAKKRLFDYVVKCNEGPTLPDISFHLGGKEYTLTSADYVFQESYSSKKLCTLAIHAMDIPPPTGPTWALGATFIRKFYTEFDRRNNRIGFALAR

Pepsin A, sequence (P0DJD9 whole entry): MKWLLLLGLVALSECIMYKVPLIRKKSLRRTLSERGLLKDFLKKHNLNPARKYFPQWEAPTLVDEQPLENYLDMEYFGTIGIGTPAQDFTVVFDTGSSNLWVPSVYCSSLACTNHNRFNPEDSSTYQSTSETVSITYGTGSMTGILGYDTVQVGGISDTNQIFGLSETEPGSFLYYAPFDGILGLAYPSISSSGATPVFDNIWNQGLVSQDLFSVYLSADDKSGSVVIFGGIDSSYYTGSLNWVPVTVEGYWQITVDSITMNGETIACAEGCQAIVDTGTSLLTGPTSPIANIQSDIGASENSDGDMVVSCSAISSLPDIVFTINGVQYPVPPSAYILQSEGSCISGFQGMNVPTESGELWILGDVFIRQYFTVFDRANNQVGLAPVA

Structure (SMILES) | pKi [1] | other results
CC(C)(C)OC(=O)NCCCC[C@H](NC(=O)OCc1ccccc1)C(=O)O | < 4.00 | 
Cc1ccc(S(=O)(=O)N(CC(C)C)[C@@H](CCCCNC(=O)CC2c3ccccc3-c3ccccc32)C(=O)O)cc1 | 7.05 | 
Cc1ccc(S(=O)(=O)N(CC(C)C)[C@@H](CCCCNC(=O)OC(C)(C)C)C(=O)O)cc1 | < 6.60 | 
Cc1ccc(S(=O)(=O)N(Cc2ccccc2)[C@@H](CCCCNC(=O)OCC2c3ccccc3-c3ccccc32)C(=O)O)cc1 | 7.71 | 
Cc1ccc(S(=O)(=O)N[C@@H](CCCCNC(=O)OC(C)(C)C)C(=O)O)cc1 | < 4.00 | 
CC(C)CN([C@@H](CCCCNC(=O)OCC1c2ccccc2-c2ccccc21)C(=O)O)S(=O)(=O)c1ccc(C(C)(C)C)cc1 | 6.59 | 
Cc1ccc(S(=O)(=O)N(CC(C)C)[C@@H](CCCCNC(=O)OCc2ccccc2)C(=O)O)cc1 | < 6.60 | 
CC(C)CN([C@@H](CCCCNC(=O)OCC1c2ccccc2-c2ccccc21)C(=O)O)S(=O)(=O)c1ccc(F)cc1 | 7.76 | 
Cc1ccc(S(=O)(=O)N(CC(C)C)[C@@H](CCCCNC(=O)OC2c3ccccc3-c3ccccc32)c2nnn[nH]2)cc1 | < 6.52 | 
CC(C)CN([C@@H](CCCCNC(=O)OCC1c2ccccc2-c2ccccc21)C(=O)O)S(=O)(=O)c1ccc([N+](=O)[O-])cc1 | 8.14 | 
Cc1ccc(S(=O)(=O)N(CC2CC2)[C@@H](CCCCNC(=O)OCC2c3ccccc3-c3ccccc32)C(=O)O)cc1 | 8.41 | 
CC(C)CN([C@@H](CCCCNC(=O)OCC1c2ccccc2-c2ccccc21)C(=O)O)S(=O)(=O)c1cccs1 | 7.38 | 
Cc1ccc(S(=O)(=O)N(CC2CCCC2)[C@@H](CCCCNC(=O)OCC2c3ccccc3-c3ccccc32)C(=O)O)cc1 | 8.28 | 
CC(C)CN(C(=O)c1ccccc1)[C@@H](CCCCNC(=O)OCC1c2ccccc2-c2ccccc21)C(=O)O | < 6.52 | 
Cc1ccc(S(=O)(=O)N(CC(C)C)[C@@H](CCCCNC(=O)OC2c3ccccc3-c3ccccc32)C(=N)S)cc1 | 6.90 | 
CC(C)CN([C@@H](CCCCNC(=O)OCC1c2ccccc2-c2ccccc21)C(=O)O)S(=O)(=O)c1cccc2ccccc12 | 7.26 | 
CC(C)CN([C@@H](CCCCNC(=O)OCC1c2ccccc2-c2ccccc21)C(=O)O)S(=O)(=O)c1ccc(N)cc1 | 8.68 | pIC50 [2]: 8.68; pIC50 [3]: 5.39; pIC50 [4]: 4.99; pIC50 [5]: 5.28
CCC(CC)CN([C@@H](CCCCNC(=O)OCC1c2ccccc2-c2ccccc21)C(=O)O)S(=O)(=O)c1ccc(C)cc1 | 7.82 | 
Cc1ccc(S(=O)(=O)N(CC(C)C)[C@H](CN)CCCCNC(=O)OC2c3ccccc3-c3ccccc32)cc1 | < 6.52 | 
Cc1ccc(S(=O)(=O)N(CC(C)C)[C@H](C=O)CCCCNC(=O)OC2c3ccccc3-c3ccccc32)cc1 | < 6.52 | 
Cc1ccc(S(=O)(=O)N(CC(C)C)[C@@H](CCCNC(=O)OCC2c3ccccc3-c3ccccc32)C(=O)O)cc1 | 6.74 | 
Cc1ccc(S(=O)(=O)N(CC(C)C)[C@H](CO)CCCCNC(=O)OC2c3ccccc3-c3ccccc32)cc1 | 6.97 | 
CCC(C)CN([C@@H](CCCCNC(=O)OCC1c2ccccc2-c2ccccc21)C(=O)O)S(=O)(=O)c1ccc(C)cc1 (stereo partly drawn) | 7.87 | 

More lines, main results first:

pKi [1] | Structure (SMILES) | other results
6.55 | Cc1ccc(S(=O)(=O)N(CC(C)C)[C@@H](CCCCNC(=O)OC2c3ccccc3-c3ccccc32)C(=N)N)cc1 | 
6.97 | Cc1ccc(S(=O)(=O)N(CC(C)C)[C@@H](CCCCNC(=O)OC2c3ccccc3-c3ccccc32)C(N)=O)cc1 | 
< 6.52 | COC(=O)[C@H](CCCCNC(=O)OC1c2ccccc2-c2ccccc21)N(CC(C)C)S(=O)(=O)c1ccc(C)cc1 | 
6.61 | Cc1ccc(S(=O)(=O)N(CC(C)C)[C@@H](CCCCNC(=O)OC2c3ccccc3-c3ccccc32)C(=O)NO)cc1 | 
8.30 | Cc1ccc(S(=O)(=O)N(CC(C)C)[C@@H](CCCCNC(=O)OCC2c3ccccc3-c3ccccc32)C(=O)O)cc1 | pIC50 [2]: 8.30; pIC50 [3]: 5.27; pIC50 [4]: 4.81; pIC50 [5]: 5.19
6.98 | Cc1ccc(S(=O)(=O)N(CC(C)C)[C@@H](CCCCNC(=O)OC2c3ccccc3-c3ccccc32)C(=O)O)cc1 | 
4.58 | Cc1ccc(S(=O)(=O)NCCC[C@H](NC(=O)OCC2c3ccccc3-c3ccccc32)C(=O)O)cc1 | 
5.70 | Cc1ccc(S(=O)(=O)N(CCCC[C@H](NC(=O)OCC2c3ccccc3-c3ccccc32)C(=O)O)CC(C)C)cc1 | 
< 6.60 | Cc1ccc(S(=O)(=O)N(CC(C)C)[C@@H](CNC(=O)OCC2c3ccccc3-c3ccccc32)C(=O)O)cc1 | 
< 6.60 | Cc1ccc(S(=O)(=O)N(CC(C)C)[C@@H](CCCCCNC(=O)OCC2c3ccccc3-c3ccccc32)C(=O)O)cc1 | 
< 6.60 | Cc1ccc(S(=O)(=O)N(CC(C)C)[C@@H](CCNC(=O)OCC2c3ccccc3-c3ccccc32)C(=O)O)cc1 | 
6.60 | Cc1ccc(S(=O)(=O)N(CC(C)C)[C@@H](CCCCNC(=O)OC2c3ccccc3-c3ccccc32)C(=O)NN)cc1 | 
